From ChEMBL document CHEMBL4043078, “Biological evaluation of pyridone alkaloids on the endocannabinoid system” (Bioorg Med Chem, 2017)
Activity calls are given as the source filed them. The calls are words filed in the database; no cut-off is given here.

What was measured:
[1] = target: T1, Monoacylglycerol lipase ABHD6 (Mus musculus) (UniProt Q8R2Y0); assay: Inhibition of ABHD6 in mouse BV2 cells preincubated for 30 mins and subsequent addition of [3H]-2-OG substrate measured after 15 mins by liquid scintillation counting method; assay type: cell-based
T1 sequence (whole entry): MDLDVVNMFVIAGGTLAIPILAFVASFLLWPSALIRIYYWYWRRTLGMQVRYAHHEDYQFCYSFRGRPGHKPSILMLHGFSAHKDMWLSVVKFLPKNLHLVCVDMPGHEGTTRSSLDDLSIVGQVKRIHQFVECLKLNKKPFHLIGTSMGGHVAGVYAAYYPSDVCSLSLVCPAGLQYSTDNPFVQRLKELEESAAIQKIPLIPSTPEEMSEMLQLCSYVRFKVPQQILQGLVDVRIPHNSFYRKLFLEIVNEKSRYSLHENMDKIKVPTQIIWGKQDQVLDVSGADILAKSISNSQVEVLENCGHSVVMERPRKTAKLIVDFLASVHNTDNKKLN

[2] = target: T2, Lysophosphatidylserine lipase ABHD12 (Mus musculus) (UniProt Q99LR1); assay: Inhibition of ABHD12 in mouse BV2 cells preincubated for 30 mins and subsequent addition of [3H]-2-OG substrate measured after 15 mins by liquid scintillation counting method; assay type: cell-based
T2 sequence (whole entry): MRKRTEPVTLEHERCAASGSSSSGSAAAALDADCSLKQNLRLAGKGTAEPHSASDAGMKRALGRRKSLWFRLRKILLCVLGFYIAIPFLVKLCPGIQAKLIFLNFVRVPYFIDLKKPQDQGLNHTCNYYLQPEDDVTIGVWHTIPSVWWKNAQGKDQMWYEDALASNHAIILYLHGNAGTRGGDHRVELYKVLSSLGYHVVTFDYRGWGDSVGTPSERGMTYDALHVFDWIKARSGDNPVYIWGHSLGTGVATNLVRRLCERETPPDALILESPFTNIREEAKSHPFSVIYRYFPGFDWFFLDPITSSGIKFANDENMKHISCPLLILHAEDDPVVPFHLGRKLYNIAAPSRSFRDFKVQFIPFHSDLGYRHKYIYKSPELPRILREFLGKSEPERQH

Sus scrofa = species on record: Sus scrofa; assay: Inhibition of MAGL in pig brain homogenates using [3H]2-OG as substrate at 10 uM after 15 mins in presence of URB597 by liquid scintillation counting method; assay type: tissue-based
Cannabinoid receptor 2 [3] = target: T3, Cannabinoid receptor 2 (Homo sapiens, UniProt P34972); assay: Displacement of [3H]CP55,940 from human CB2 receptor expressed in CHOK1 cell membranes at 1 uM after 2 hrs by liquid scintillation counting method relative to control
T3 sequence (P34972 whole entry): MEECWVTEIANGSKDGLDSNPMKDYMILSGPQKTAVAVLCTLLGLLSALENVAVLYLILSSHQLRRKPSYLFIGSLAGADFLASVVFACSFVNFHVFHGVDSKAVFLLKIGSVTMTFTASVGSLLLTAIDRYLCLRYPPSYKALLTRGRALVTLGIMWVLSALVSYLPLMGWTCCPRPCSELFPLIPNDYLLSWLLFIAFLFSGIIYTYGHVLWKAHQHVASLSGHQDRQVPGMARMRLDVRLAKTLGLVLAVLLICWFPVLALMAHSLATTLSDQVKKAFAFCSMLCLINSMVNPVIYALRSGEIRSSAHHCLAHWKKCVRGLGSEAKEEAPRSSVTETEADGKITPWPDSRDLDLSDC

[4] = target: T4, Fatty-acid amide hydrolase 1 (Homo sapiens) (UniProt O00519); assay: Inhibition of FAAH in human U937 cells assessed as decrease in [ethanolamine-1-3H]AEA uptake at 10 uM preincubated for 2 mins followed by AEA addition after 5 mins by liquid scintillation counting method; assay type: cell-based
T4 sequence (whole entry): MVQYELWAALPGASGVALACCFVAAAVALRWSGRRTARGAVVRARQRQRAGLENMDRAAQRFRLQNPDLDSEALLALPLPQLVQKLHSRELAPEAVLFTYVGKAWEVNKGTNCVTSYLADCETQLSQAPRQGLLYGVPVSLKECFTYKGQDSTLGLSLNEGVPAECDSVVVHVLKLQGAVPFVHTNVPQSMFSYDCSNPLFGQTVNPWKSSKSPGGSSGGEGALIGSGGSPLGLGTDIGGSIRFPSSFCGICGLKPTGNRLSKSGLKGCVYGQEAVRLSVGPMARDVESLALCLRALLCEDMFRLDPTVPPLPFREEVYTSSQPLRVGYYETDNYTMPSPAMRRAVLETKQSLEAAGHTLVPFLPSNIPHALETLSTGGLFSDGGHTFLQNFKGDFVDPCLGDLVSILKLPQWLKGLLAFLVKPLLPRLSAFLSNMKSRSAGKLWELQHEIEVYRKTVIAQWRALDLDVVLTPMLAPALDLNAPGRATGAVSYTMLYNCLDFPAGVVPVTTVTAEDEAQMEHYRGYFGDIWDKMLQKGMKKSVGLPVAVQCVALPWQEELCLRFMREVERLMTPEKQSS

Cannabinoid receptor 1 [5] = target: T5, Cannabinoid receptor 1 (Homo sapiens, UniProt P21554); assay: Displacement of [3H]CP55,940 from human CB1 receptor expressed in CHOK1 cell membranes at 1 uM after 2 hrs by liquid scintillation counting method relative to control
T5 sequence (P21554 whole entry): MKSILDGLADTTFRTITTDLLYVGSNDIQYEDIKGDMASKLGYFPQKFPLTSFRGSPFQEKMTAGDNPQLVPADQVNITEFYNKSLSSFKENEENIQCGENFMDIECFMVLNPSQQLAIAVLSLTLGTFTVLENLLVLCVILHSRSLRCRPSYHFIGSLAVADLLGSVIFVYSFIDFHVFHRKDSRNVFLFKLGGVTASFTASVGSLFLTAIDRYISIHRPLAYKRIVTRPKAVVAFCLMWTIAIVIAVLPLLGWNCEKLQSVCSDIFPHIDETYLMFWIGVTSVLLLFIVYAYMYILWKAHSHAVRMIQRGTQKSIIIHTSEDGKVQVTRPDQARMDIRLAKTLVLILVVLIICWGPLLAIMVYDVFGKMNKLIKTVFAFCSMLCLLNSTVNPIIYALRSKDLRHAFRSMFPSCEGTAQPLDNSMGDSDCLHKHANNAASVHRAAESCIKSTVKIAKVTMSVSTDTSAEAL

[6] = target: T6, Fatty-acid amide hydrolase 1 (Homo sapiens, UniProt O00519); assay: Inhibition of FAAH in human U937 cells assessed as decrease in [ethanolamine-1-3H]AEA uptake preincubated for 2 mins followed by AEA addition after 5 mins by liquid scintillation counting method; assay type: cell-based
T6 sequence (O00519 whole entry): T4 sequence (whole entry)

[7] = target: T6, Fatty-acid amide hydrolase 1; assay: Inhibition of FAAH in human U937 cells using [ethanolamine-1-3H]AEA as substrate after 15 mins by liquid scintillation counting method; assay type: cell-based
[8] = Inhibition of MAGL in pig brain homogenates using [3H]2-OG as substrate after 15 mins by liquid scintillation counting method; assay type: tissue-based, Sus scrofa
[9] = target: T7, Prostaglandin G/H synthase 2 (Homo sapiens, UniProt P35354); assay: Inhibition of recombinant human COX2 preincubated for 15 mins followed by arachidonic acid/2-OG substrate addition after 5 mins by ADHP probe-based fluorescence assay
T7 sequence (P35354 whole entry): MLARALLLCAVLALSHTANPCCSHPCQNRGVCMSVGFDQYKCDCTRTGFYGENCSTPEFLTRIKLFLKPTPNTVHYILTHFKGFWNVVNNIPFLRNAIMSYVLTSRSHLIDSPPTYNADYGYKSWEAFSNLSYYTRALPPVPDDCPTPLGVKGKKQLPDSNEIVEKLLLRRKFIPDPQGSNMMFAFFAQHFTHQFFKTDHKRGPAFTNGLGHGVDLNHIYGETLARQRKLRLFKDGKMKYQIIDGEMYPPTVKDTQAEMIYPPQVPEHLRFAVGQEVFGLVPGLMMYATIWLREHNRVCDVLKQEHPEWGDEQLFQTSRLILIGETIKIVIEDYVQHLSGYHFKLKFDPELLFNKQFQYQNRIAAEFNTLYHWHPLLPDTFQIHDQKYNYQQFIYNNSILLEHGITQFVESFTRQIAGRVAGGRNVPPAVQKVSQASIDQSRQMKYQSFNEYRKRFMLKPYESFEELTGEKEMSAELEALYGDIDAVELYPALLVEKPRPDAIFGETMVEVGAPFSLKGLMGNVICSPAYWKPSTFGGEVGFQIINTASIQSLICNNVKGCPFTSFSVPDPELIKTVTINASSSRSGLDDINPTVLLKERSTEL

Cannabinoid receptor 2 [10] = target: T3, Cannabinoid receptor 2; assay: Displacement of [3H]CP55,940 from human CB2 receptor expressed in CHOK1 cell membranes after 2 hrs by liquid scintillation counting method
Cannabinoid receptor 1 [11] = target: T5, Cannabinoid receptor 1; assay: Displacement of [3H]CP55,940 from human CB1 receptor expressed in CHOK1 cell membranes after 2 hrs by liquid scintillation counting method
[12] = target: T4, Fatty-acid amide hydrolase 1 (Homo sapiens); assay: Inhibition of FAAH in human U937 cells using [ethanolamine-1-3H]AEA as substrate at 10 uM after 15 mins by liquid scintillation counting method relative to control; assay type: cell-based

Row | SMILES | inhibition [1] | inhibition [2] | inhibition (Sus scrofa) | inhibition (Cannabinoid receptor 2 [3]) | inhibition [4] | inhibition (Cannabinoid receptor 1 [5]) | IC50 [6] | IC50 [7] | IC50 [8] | IC50 [9] | Ki (Cannabinoid receptor 2 [10]) | Ki (Cannabinoid receptor 1 [11]) | inhibition [12]
1 | O=C(Oc1ccc([N+](=O)[O-])cc1)N1CCC(C(O)(c2ccc3c(c2)OCO3)c2ccc3c(c2)OCO3)CC1 | inactive | inactive | inactive |  |  |  |  |  |  |  |  |  | 
2 | CCCCCCCCCCC[C@@H](C[C@@H]1OC(=O)[C@H]1CCCCCC)OC(=O)[C@H](CC(C)C)NC=O | Active | Active |  |  |  |  |  |  |  |  |  |  | 
3 | CCC(/C=C(C)/C=C/C(=O)c1c(O)c(-c2ccc(O)cc2)c[nH]c1=O)CO (stereo not given) | inactive | inactive | inactive | < 20% | inactive | < 20% |  |  |  |  |  |  | 
4 | CN(Cc1cccc(-c2ccncc2)c1)C(=O)Oc1ccc(-c2ccc(C(N)=O)cc2)cc1 | Active | Active |  |  |  |  |  |  |  |  |  |  | 
5 | CCC(C)/C=C(C)/C=C/C=C/C(=O)c1c(O)c(-c2ccc(O)cc2)c[nH]c1=O (stereo not given) | inactive | inactive | inactive | < 20% | inactive | < 20% |  |  |  |  |  |  | 
6 | CCCCCCCCCCCCCCCCCC(=O)c1c(O)c(-c2ccc(O)cc2)c[nH]c1=O | inactive | inactive | inactive | < 20% | inactive | < 20% | > 10000 nM | > 10000 nM | > 10000 nM | > 10000 nM | > 1000 nM | > 1000 nM | 
7 | CCC(C)CC(C)/C=C(C)/C=C/C=C/C(=O)c1c(O)c(-c2ccc(O)cc2)c[nH]c1=O (stereo not given) | inactive | inactive | inactive | < 20% | Active | < 20% |  |  |  |  |  |  | 40 to 50%
8 | CC[C@@H](C)/C=C(C)/C=C/C(=O)c1c(O)c(-c2ccc(O)cc2)c[nH]c1=O | inactive | inactive | inactive |  | Active | 40% |  |  |  |  |  |  | 
9 | NC(=O)c1cccc(-c2cccc(OC(=O)NC3CCCCC3)c2)c1 | inactive | inactive | inactive |  |  |  |  |  |  |  |  |  | 
10 | CCC(C)/C=C(C)/C=C/C=C/C(=O)c1c(OC)c(-c2ccc(O)cc2)c[nH]c1=O (stereo not given) | inactive | inactive | inactive | < 20% | Active | < 20% |  |  |  |  |  |  | 
11 | CCCCCCCC(=O)c1c(O)c(-c2ccc(O)cc2)c[nH]c1=O | inactive | inactive | inactive | < 20% | Active | < 20% | 700 nM | > 10000 nM | > 10000 nM | > 10000 nM | > 1000 nM | > 1000 nM | 80%
12 | CCC(/C=C/C=C/C=C/C(=O)c1c(O)c(-c2ccc(O)cc2)c[nH]c1=O)CO (stereo not given) | inactive | inactive | inactive | < 20% | inactive | < 20% |  |  |  |  |  |  | 
13 | C=CCCCOC(=O)c1c(O)c(-c2ccc(O)cc2)c[nH]c1=O | inactive | inactive | inactive | < 20% | inactive | < 20% |  |  |  |  |  |  | 
14 | CCCCCCCCCCOC(=O)c1c(O)c(-c2ccc(O)cc2)c[nH]c1=O | inactive | inactive | inactive | < 20% | Active | < 20% | 600 nM | > 10000 nM | > 10000 nM | > 10000 nM | > 1000 nM | > 1000 nM | 40 to 50%
15 | CCC(C)/C=C(C)/C=C/C=C/C=C/C(=O)c1c(O)c(-c2ccc(O)cc2)c[nH]c1=O (stereo not given) [FARINOSONE A] | inactive | inactive | inactive | < 20% | Active | < 20% | 1200 nM | > 10000 nM | > 10000 nM | > 10000 nM | > 1000 nM | > 1000 nM | 
16 | CCC(C)CC(C)/C=C(C)/C=C/C(=O)c1c(O)c(-c2ccc(O)cc2)c[nH]c1=O (stereo not given) | inactive | inactive | inactive |  | inactive | 40% |  |  |  |  |  |  | 
17 | CCCCCCCCCCCC(=O)c1c(O)c(-c2ccc(O)cc2)c[nH]c1=O | inactive | inactive | inactive | inactive | Active | 50% | 800 nM | 4600 nM | > 10000 nM | > 10000 nM | > 1000 nM | 1000 nM | 40 to 50%
